Measured values from patent US11891401B2, “Solid forms of N-(4-fluoro-3-(6-(3-methylpyridin-2-yl)-[1,2,4]triazolo[1,5-a]pyrimidin-2-yl)phenyl)-2,4-dimethyloxazole-5-carboxamide” (NOVARTIS AG, priority 2018, dated 2024).
≈ marks a conversion by molar mass, not a printed value.

How the values were obtained:
Type in all cases: physicochemical
[1] = Form after storage at 92% RH; details: 24 hrs
[2] = Solubility in various media at 25° C. after 24 hours equilibration (UPLC); details: for final pH of the sample (in parentheses): after 24 hours equilibration
[3] = Solid-state physical stability: form change by XRPD after stress storage; details: for Bulk (XRPD): Solid state
Procedure: (§1) Compound I, Compound I fumaric acid co-crystals and amorphous Compound I fumaric acid samples (10 mg) were placed in an open vial at 50° C./75% RH and 80° C./75% RH chamber for one week. A same amount of sample was placed in a closed vial at 50° C. and 80° C. chamber for 1 week. The samples were exposed to 100 k Lux light for 12 h at 25° C. Solids were examined by XRPD for physical stability determination and by UPLC for chemical stability determination. The color of the samples was evaluated by visual observation. Table 5 compares the stability of Compound I and its various solid forms.

[4] = Solid-state chemical stability: degradation products by UPLC/HPLC after stress storage; details: for DP % (Degradation Product), Bulk (UPLC): Solid state
Procedure: as §1

[5] = Dynamic Vapor Sorption (DVS) moisture absorption / hygroscopicity; details: for solid form after DVS: after DVS testing
[6] = Form after degradation at 160° C.
[7] = Crystal form after grinding, compression and wet granulation; details: compression and wet granulation (water and ethanol), listed as free form hydrate
[8] = 50° C., 50° C./75& RH, 80° C. and 80° C./75% RH for one week
[9] = 1 week 50° C., closed container
[10] = 1 week 80° C., closed container

- form after storage at 92% RH ([1]; listed as Compound I free form): changes into a dihydrate
- form after storage at 92% RH ([1]; listed as free form hydrate): dihydrate
- final pH of the sample (in parentheses) ([2]; 0.01N HCl pH 2.0): 2.10
- solubility ([2]; 0.1N HCl pH 1.0, 25° C., 24 hours equilibration): 232 µg/mL (≈ 523 µM)
- final pH of the sample (in parentheses) ([2]; 0.1N HCl pH 1.0): 1.00
- solubility ([2]; FaSSIF pH 6.5, 25° C., 24 hours equilibration): 4 µg/mL (≈ 9.02 µM)
- final pH of the sample (in parentheses) ([2]; FaSSIF pH 6.5): 6.31
- solubility ([2]; FeSSIF pH 5.8, 25° C., 24 hours equilibration): 6 µg/mL (≈ 13.5 µM)
- final pH of the sample (in parentheses) ([2]; FeSSIF pH 5.8): 5.73
- solubility ([2]; SGF pH 2.0, 25° C., 24 hours equilibration): 29 µg/mL (≈ 65.4 µM)
- final pH of the sample (in parentheses) ([2]; SGF pH 2.0): 1.99
- solubility ([2]; acetate buffer pH 4.7, 25° C., 24 hours equilibration): 2 µg/mL (≈ 4.51 µM)
- final pH of the sample (in parentheses) ([2]; acetate buffer pH 4.7): 4.68
- solubility ([2]; borate buffer pH 10.0, 25° C., 24 hours equilibration): 2 µg/mL (≈ 4.51 µM)
- final pH of the sample (in parentheses) ([2]; borate buffer pH 10.0): 8.58
- solubility ([2]; phosphate buffer pH 6.8, 25° C., 24 hours equilibration): 1 µg/mL (≈ 2.26 µM)
- final pH of the sample (in parentheses) ([2]; phosphate buffer pH 6.8): 6.65
- solubility at 24 h ([2]; simulated gastric fluid, thermodynamic from solid, 0.01N HCl pH 2.0, 25° C., 24 hours equilibration): 17 µg/mL (≈ 38.3 µM)
- solubility ([2]; water, 25° C., 24 hours equilibration): 9 µg/mL (≈ 20.3 µM)
- final pH of the sample (in parentheses) ([2]; water): 8.18
- form change in bulk [3, 8]: form changes were noticed
- form obtained upon exposure to 75% RH humidity ([3]; 75% RH at both temperatures (50° C. and 80° C.), one week): a dihydrate was obtained
- Bulk (XRPD) [3, 9]: no change
- Bulk (XRPD) ([3]; 1 week 50° C./75% r.h.): change
- Bulk (XRPD) [3, 10]: change
- chemical stability in bulk [4, 8]: chemically stable
- stability upon exposure to light ([4]; 1200 kLuxh light for 12 hrs): stable
- DP % (Degradation Product), Bulk (UPLC) [4, 9]: 0.6%
- DP % (Degradation Product), Bulk (UPLC) ([4]; 1 week 50° C./75% r.h.): 0.6%
- DP % (Degradation Product), Bulk (UPLC) [4, 10]: 0.6%
- DP % (Degradation Product), Bulk (UPLC) ([4]; 1 week 80° C./75% r.h.): 0.6%
- DP % (Degradation Product), Amber vial (HPLC) ([4]; Xenon light (approx. 1200 kLuxh), amber vial): 0.8%
- DP % (Degradation Product), Clear vial (HPLC) ([4]; Xenon light (approx. 1200 kLuxh), clear vial): 0.6%
- solid form after DVS ([5]; listed as Compound I free form): changes into a dihydrate
- solid form after DVS ([5]; listed as free form hydrate): form change that is likely a dihydrate
- moisture absorption by DVS ([5]; at 25° C., RH not stated): 8.9%
- hygroscopicity ([5]; by DVS, listed as free form hydrate): hygroscopic
- form after degradation at 160° C. [6]: converts to an amorphous form
Structure (SMILES): Cc1nc(C)c(C(=O)Nc2ccc(F)c(-c3nc4ncc(-c5ncccc5C)cn4n3)c2)o1 [Free Form, N-(4-fluoro-3-(6-(3-methylpyridin-2-yl)-[1,2,4]triazolo[1,5-a]pyrimidin-2-yl)phenyl)-2,4-dimethyloxazole-5-carboxamide]
- form observed ([3]; under 50° C./75% RH): mixture of the free form hydrate and anhydrous modification
- crystal form after grinding, compression and wet granulation [7]: converted to a different hydrate or a hydrate mixture
